Measured values: article PMC4992889, “The viral capping enzyme nsP1: a novel target for the inhibition of chikungunya virus infection” (Scientific Reports, 2016)
Read-outs that look alike come from different tables or passages of the source.

Key:
CHIKV [1] = test: Time-of-addition study, CHIKV RNA reduction; format: cell-based, Chikungunya virus; settings: for reduction in CHIKV RNA: added 6 h post infection, assessed at 24 h post infection
CHIKV [2] = settings: cited from earlier work
CHIKV strain 899 [3] = test: CPE reduction antiviral assay, CHIKV 899 in Vero A cells (MTS/PMS); format: cell-based; settings: Chikungunya virus
[4] = test system: MADTP-314res CHIKV 899 variant; test: microbe, parasite or virus in culture; format: cell-based, Chikungunya virus; settings: for EC50: Chikungunya virus, read-out: EC50 MADTP-314res variant 3 (resistance selection)
CHIKV [5] = settings: cited from earlier work; remark: listed apart in the source
[6] = test system: CHIKV pseudoparticles (CHIKVpp); format: cell-based, Chikungunya virus
CHIKV Congo 95 (2011) = test: Viral RNA reduction (qRT-PCR) antiviral assay in Vero E6 cells; format: cell-based; settings: Chikungunya virus, Vero C1008, read-out: EC50, in vitro antiviral activity against CHIKV Congo 95 (2011)
CHIKV RNA synthesis = test: Metabolic labeling with 3H-uridine of CHIKV RNA in infected Vero E6 cells; format: cell-based, Chikungunya virus; settings: 50–250 μM
[7] = test system: CHIKV Venturini (Italy 2008); test: Viral RNA reduction (qRT-PCR) antiviral assay in Vero E6 cells; format: cell-based; settings: Chikungunya virus, Vero C1008, read-out: EC50, in vitro antiviral activity against CHIKV Venturini (Italy 2008)
[8] = test system: translation of incoming capped CHIKV RNA; format: cell-based, Chikungunya virus; settings: 250 μM
WT CHIKV LS3 = test: microbe, parasite or virus in culture; format: cell-based, Chikungunya virus; settings: for EC50: Chikungunya virus, Vero C1008, read-out: EC50 WT LS3 (reverse genetics)
VEEV nsP1 [9] = target: T1, VEEV nsP1 (Venezuelan equine encephalitis virus, UniProt P36328); test: biochemical
T1 sequence (P36328 1-535 limits assumed): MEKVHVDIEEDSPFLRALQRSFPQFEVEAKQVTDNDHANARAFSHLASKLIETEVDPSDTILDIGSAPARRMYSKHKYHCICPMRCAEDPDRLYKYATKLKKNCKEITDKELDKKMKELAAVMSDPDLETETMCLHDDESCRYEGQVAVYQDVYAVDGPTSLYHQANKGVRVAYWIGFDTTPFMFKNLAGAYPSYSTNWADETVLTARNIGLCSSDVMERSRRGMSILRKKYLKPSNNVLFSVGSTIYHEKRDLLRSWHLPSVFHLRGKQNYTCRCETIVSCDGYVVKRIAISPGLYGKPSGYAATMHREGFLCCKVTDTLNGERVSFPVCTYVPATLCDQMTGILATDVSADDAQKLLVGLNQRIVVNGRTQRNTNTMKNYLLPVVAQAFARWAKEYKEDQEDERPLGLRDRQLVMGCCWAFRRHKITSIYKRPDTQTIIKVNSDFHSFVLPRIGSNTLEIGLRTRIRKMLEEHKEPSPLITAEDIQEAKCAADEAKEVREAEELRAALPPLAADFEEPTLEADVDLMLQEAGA

[10] = target: CHIKV replication/transcription complexes (RTCs) (Chikungunya virus, UniProt Q8JUX6); test: In vitro RNA synthesis assay with isolated CHIKV replication/transcription complexes (32P-CTP incorporation); format: biochemical; settings: 250 μM
Chain of CHIKV replication/transcription complexes (RTCs) (Q8JUX6 1864-2474 limits assumed): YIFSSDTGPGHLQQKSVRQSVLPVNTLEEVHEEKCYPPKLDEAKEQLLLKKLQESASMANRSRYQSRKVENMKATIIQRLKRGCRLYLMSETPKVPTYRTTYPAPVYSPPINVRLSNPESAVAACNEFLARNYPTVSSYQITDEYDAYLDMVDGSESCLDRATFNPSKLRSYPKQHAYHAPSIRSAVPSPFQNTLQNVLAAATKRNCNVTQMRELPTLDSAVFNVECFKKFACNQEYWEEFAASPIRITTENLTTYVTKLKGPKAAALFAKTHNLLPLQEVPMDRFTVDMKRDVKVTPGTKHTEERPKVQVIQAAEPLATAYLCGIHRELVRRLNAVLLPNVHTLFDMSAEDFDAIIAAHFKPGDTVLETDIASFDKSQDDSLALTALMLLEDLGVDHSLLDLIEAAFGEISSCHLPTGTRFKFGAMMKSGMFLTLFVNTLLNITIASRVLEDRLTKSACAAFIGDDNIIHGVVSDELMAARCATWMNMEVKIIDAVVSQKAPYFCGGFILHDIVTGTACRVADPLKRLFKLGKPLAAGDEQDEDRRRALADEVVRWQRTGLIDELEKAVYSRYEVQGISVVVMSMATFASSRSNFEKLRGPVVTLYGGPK
Chain of CHIKV replication/transcription complexes (RTCs) (Q8JUX6 1-535 partner limits assumed): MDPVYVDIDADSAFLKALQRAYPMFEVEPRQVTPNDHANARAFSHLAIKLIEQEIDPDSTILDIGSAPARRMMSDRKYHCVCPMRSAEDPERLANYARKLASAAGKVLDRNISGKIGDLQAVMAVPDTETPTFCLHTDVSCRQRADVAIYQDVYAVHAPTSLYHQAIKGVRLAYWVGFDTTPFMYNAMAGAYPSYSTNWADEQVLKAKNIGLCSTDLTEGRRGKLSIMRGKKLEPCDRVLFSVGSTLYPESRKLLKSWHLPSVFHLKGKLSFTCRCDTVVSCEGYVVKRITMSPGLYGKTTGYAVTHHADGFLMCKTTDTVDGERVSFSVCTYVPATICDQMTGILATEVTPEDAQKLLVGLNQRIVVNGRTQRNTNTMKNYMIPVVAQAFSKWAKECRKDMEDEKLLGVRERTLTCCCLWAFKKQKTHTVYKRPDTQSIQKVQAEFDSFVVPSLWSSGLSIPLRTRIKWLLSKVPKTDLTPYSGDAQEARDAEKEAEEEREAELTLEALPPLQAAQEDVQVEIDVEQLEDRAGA
Chain of CHIKV replication/transcription complexes (RTCs) (Q8JUX6 536-1333 partner limits assumed): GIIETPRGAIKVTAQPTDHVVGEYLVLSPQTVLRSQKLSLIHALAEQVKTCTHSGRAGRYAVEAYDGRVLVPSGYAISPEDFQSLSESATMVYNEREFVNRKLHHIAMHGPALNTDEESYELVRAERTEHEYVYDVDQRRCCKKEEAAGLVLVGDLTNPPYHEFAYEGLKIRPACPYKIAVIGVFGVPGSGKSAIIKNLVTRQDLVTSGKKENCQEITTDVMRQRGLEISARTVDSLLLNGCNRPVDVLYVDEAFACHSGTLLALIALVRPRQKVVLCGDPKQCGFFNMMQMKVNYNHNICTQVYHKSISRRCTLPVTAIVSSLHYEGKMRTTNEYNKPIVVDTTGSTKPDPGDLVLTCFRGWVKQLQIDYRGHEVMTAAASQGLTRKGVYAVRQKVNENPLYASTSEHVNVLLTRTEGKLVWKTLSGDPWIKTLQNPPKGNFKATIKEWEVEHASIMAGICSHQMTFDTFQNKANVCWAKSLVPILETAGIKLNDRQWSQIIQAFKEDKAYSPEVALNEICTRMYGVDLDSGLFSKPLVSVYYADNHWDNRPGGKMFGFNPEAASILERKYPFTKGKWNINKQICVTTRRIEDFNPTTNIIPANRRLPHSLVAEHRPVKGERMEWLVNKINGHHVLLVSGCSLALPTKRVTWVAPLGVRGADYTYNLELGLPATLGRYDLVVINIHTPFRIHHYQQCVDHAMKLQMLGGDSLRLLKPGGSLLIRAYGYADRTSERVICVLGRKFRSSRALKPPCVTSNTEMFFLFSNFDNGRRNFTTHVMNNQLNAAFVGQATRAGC

VEEV TC83 = test: microbe, parasite or virus in culture; format: cell-based; settings: Venezuelan equine encephalitis virus, Vero C1008, read-out: EC50, in vitro antiviral activity against VEEV TC83
in vitro = settings: African green monkey
CHIKV strain 899 [11] = settings: cited from earlier work
VEEV nsP1 [12] = target: T1, VEEV nsP1; test: biochemical; format: biochemical
CHIKV [13] = settings: clinical studies; cited from earlier work
Vero cells = settings: cited from earlier work
[14] = read-out: EC50 WT 899 (resistance selection)
[15] = 120 h, read-out: EC50, in vitro antiviral activity against CHIKV 899 (lab)

Row | SMILES | EC50 [4] [µM] | entry of CHIKV pseudoparticles into the host cell [6] | EC50 (CHIKV Congo 95 (2011)) [µM] | EC50 (CHIKV strain 899 [3]; [15]) [µM] | EC50 [7] [µM] | EC50 (WT CHIKV LS3) [µM] | IC50 (VEEV nsP1 [9]) [µM] | EC50 (VEEV TC83) [µM] | CC50 (in vitro) [µM] | other results
1 | NC(=O)c1nc(F)c[nH]c1=O [T-705, reference compound] | 34 ± 5.7 | – | – | – | – | – | – | – | – | reduction in CHIKV RNA (CHIKV [1]): 1.0 log10; anti-CHIKV activity in vitro (CHIKV [2]): exerts anti-CHIKV activity; EC50 (CHIKV strain 899 [3]; [14]): 20 ± 2.7 µM; cross-resistance of MADTP-314-resistant variants [4]: No cross-resistance; anti-CHIKV activity in a mouse model (CHIKV [5]): exerts anti-CHIKV activity
2 | CCOC(=O)c1c(CSc2ccccc2)n(C)c2cc(Br)c(O)c(CN(C)C)c12 [arbidol] | – | inhibited CHIKVpp entry in a dose-dependent manner | – | – | – | – | – | – | – | –
3 | CC(=O)c1cccc(-n2nnc3c(=O)[nH]c(C)nc32)c1 [MADTP-314, 3-(3′-acetylphenyl)-5-methyl-3H-[1,2,3]triazolo[4,5-d]pyrimidin-7(6H)-one] | 283 ± 45 | not able to block the entry | 6.4 ± 0.1 | 26 ± 11 | 26 ± 2 | 40 ± 5 | > 1000 | > 40 | > 743 | reduction in CHIKV RNA (CHIKV [1]): 1.3 log10; CHIKV RNA synthesis (3H-uridine incorporation) (CHIKV RNA synthesis): did not inhibit CHIKV RNA synthesis; fold less sensitive, MADTP-314-resistant variants vs wild-type [4]: ~ 11 fold; luciferase activity (translation of replication-deficient CHIKV RNA) [8]: comparable to that in untreated control cells; fold less sensitive, CHIKV LS3 vs CHIKV 899 (WT CHIKV LS3): 1.5 fold; incorporation of 32P-CTP into CHIKV RNA by isolated RTCs [10]: did not inhibit the incorporation
4 | CCCOc1ccc(-n2nnc3c(=O)[nH]c(C)nc32)cc1 [MADTP-346] | – | – | – | – | – | – | > 1000 | – | – | anti-CHIKV activity in cell culture (CHIKV strain 899 [11]): devoid of anti-CHIKV activity; GT activity of VEEV nsP1 (formation of m7GMP-nsP1 complex) (VEEV nsP1 [12]): did not inhibit the GT activity
5 | CCN(CC)CCCC(C)Nc1ccnc2cc(Cl)ccc12 (stereo not drawn) [Chloroquine] | 20 ± 4.7 | inhibited CHIKVpp entry in a dose-dependent manner | – | – | – | – | – | – | – | reduction of CHIKV RNA (CHIKV [1]; added 2 h before infection): 2 log10; protective activity in time-of-addition (CHIKV [1]; added at time points later than 1 h p.i.): entirely lost its protective activity; effect on CHIKV replication in vitro (CHIKV [2]): dose- and time-dependent inhibitory effect; EC50 (CHIKV strain 899 [3]; [14]): 18 ± 11 µM; cross-resistance of MADTP-314-resistant variants [4]: No cross-resistance; efficacy in infected patients (CHIKV [13]): failed to prove its efficacy
6 | CCc1nc2c(nnn2-c2cccc(OC(C)C)c2)c(=O)[nH]1 [MADTP-372, 5-ethyl-3-(3-isopropoxyphenyl)-3H-[1,2,3]triazolo[4,5-d]-pyrimidin-7(6H)-one] | 255 ± 16 | – | 0.75 ± 0.4 | 2.6 ± 1 | 1.4 ± 0.01 | 4.9 ± 0.6 | > 1000 | 6.8 | > 668 | CC50 (Vero cells): > 400 µM; GT activity of VEEV nsP1 (formation of m7GMP-nsP1 complex) (VEEV nsP1 [12]): inhibited the GT activity of VEEV nsP1 in a concentration-dependent manner; IC50 (VEEV nsP1 [12]): 10 ± 0.3 µM
7 | CCc1nc2c(nnn2-c2cccc(C(C)=O)c2)c(=O)[nH]1 [MADTP-393] | 193 ± 14 | – | 1.4 ± 0.3 | 18 ± 6.4 | 8.2 ± 2.2 | 15 ± 0.8 | – | 35 ± 10 | 57 | –
